How the values were obtained:
[1] = tested on: CCRF-CEM cells; assay: Cell cycle analysis (PI staining); type: cell-based, human; details: 5 uM
Experimental: Control and treated cells were collected, fixed and stained with propidium iodide (100 μg/mL) in PBS containing sodium citrate (1 mg/mL), Triton-X-100 (0.1%), and RNAse (20 μg/mL) for 30 min. Data were acquired on a BD FACScan flow cytometer using CellQuest software (BD Immunocytometry Systems, San Jose, Calif.) and analyzed by using FlowJo software (Tree Star, Inc., Ashland, Oreg.).
It was investigated whether the reduced proliferation that we observed with IRAK-1,-4 inhibitor (FIG. 11 and FIG. 12) was a result of cell cycle arrest or apoptosis. CCRF-CEM cells were treated with IRAK-1,-4 inhibitor for 24, 48, 72, and 96 hours.

[2] = tested on: CCRF-CEM cells; assay: Cell number and apoptosis assays; type: cell-based, human; details: 5 uM, 24-96 hours
Experimental: TLR ligands were diluted 2-fold. Cell lines (25-40×10^3/well) were cultured for 54 hours, whereas fresh patient-derived T-ALL cells (200×10^3/well) were cultured for 30 hours prior to adding [^3H]-thymidine for 18 hours. After this time point, cells were harvested with a Packard Filter-Mate-96 cell harvester (Perkin Elmer, Waltham, Mass., USA) and counted on Packard Top Count-NXT (Perkin Elmer, Waltham, Mass., USA). Results were expressed as average counts per minute (cpm). In some experiments CCRF-CEM cells were pre-treated with TLR1-TLR2 ligand (Pam3CysK4; 2.5 ug/ml) for 48 hrs, washed, and then cultured in the presence of varying concentrations of FBS. Forty-eight hours later, proliferation (±SD) was determined by ^3H-thymidine incorporation. Alternatively, apoptosis was measured by flow cytometry after staining cells with Annexin-V (BD Pharmingen, San Diego, Calif., USA) and propidium iodide (Sigma). Cell number was counted under microscopy by staining cells with trypan blue.
CCRF-CEM cells were treated with IRAK-1,-4 inhibitor for 24, 48, 72, and 96 hours.
The T-ALL cell line CCRF-CEM was cultured in the presence of 0, 1.2, 5, 10, and 20 μM IRAK-1,-4 inhibitor. (FIG. 23). To each concentration of IRAK-1,-4 inhibitor titrating doses of ABT-737 (1000→15 nM) vincristine, VS (10→0.1 nM), and paclitaxol, PAC (100→1.5 nM). […] Apoptosis was measure 48 hours later by staining cells with 7AAD and analyzed by flow cytometry.

[3] = tested on: A375 melanoma cells; assay: Western blot of cleaved PARP and caspase-3; type: cell-based, human; details: for levels of cleaved PARP and caspase-3: 48 hrs, FIG. 8D
Experimental: FIG. 8. […] (A) A375 and Malme-3M melanoma cells were cultured with or without 2.5 μM of IRAK-1,-4 and in the presence varying concentrations of vinblastine, cisplatin or 5′ Fluorouracil. Forty-eight hours later apoptosis was evaluated by staining cells with annexin-V and propidium iodide and analyzed by flow cytometry. (B) A375 cells were transfected via electroporation with siRNA-IRAK-1,-4. IRAK-1 protein levels were examined by Western blotting. […], A375-psiRNA-hIRAK-1, A375-psiRNA-hIRAK-4, or cells expressing both psiRNA-hIRAK-1 and -4 were cultured in the presence of vinblastine (100 nmol/L) for 48 hours and apoptosis was examined by flow cytometry. (C) A375 melanoma cells were cultured in the presence of vehicle alone (DMSO) or various concentrations of IRAK-1,-4. Forty-eight hours later cell lysates were used to analyze the expression of levels of cleaved PARP or caspase-3 by Western blots. (D) A375 melanoma cells were cultured with or without 2.5 μM of IRAK.-1,-4 and in the presence or absence of vinblastine for 48 hrs. PARP and caspase-3 levels were determined by Western blot.
(§1) Total cell extracts were prepared from melanoma cells. […] Melanoma tissue arrays were purchased from US Biomax, Inc (Rockville, Md.). For immunohistochemical staining samples were stained with mouse monoclonal anti-human phosphor-IRAK.-4 antibody (Abnova; dilution, 3.5 μg/ml) or normal mouse serum. Tissue histology sections (5-μm-thick) were deparaffinized, hydrated, heated in boiling 10 mmol/L sodium citrate (pH 6.0), for antigen retrieval, for 30 min and washed in Tris buffer. Peroxide blocking was done with 3% […] in methanol at room temperature for 15 min, followed by 10% fetal bovine serum in TBS-t for 30 min at room temperature. Primary antibody incubation was done overnight at 4° C. Secondary antibody incubation with horse anti-mouse (1:200; Vector Laboratories, Burlingame, Calif.) was done for 1 hr, followed by application of diaminobenzidine chromogen for 5 min. The slides were then counterstained with hematoxylin and topped with a coverslip. IHC specimens were analyzed using “quick score” system in which the intensity of the immunohistochemical reaction was scored by multiplying the intensity 1 (weak), 2 (moderate), and 3 (strong) and the proportion of cells staining positively 0 (<10%), 1 (10-25%), 2 (26-50%), 3 (51-75%) or 4 (>75%).

[4] = molecular target: IRAK-4 (Homo sapiens, UniProt Q9NWZ3); details: supplier (EMD Millipore) description; cited from earlier work
[5] = tested on: G361 melanoma cells; assay: Western blot of IRAK phosphorylation in G361; type: cell-based, human; details: Pam3CysK4 2.5 μg/ml or flagellin 100 ng/ml, 48 hours, FIG. 22B
Experimental: FIG. 22. Effects of TLR stimulation and cytokines on IRAK phosphorylation in melanoma cells. (A) A375 cells were cultured in the presence of anti-IL-18, anti-CXCL-1, (R&D Systems), anti-IL-1 (BioLegend), or mouse IgG (Sigma-Aldrich) all at 10 μg/ml. Forty-eight hours later the levels of the indicated proteins were determined by western blot. (B) A375 cells, which express p-IRAK-1 and p-IRAK-4, and G361 melanoma cells, which express very low levels of p-IRAK-1 (and express TLR5) were cultured in the presence of TLR1-TLR2 agonist (Pam3CysK4; 2.5 μg/ml) or TLR5 (flagellin; 100 ng/ml; InVivogen). Forty-eight hours later total protein was collected and the levels of the indicated proteins were examined by western blot.
as §1

IRAK-4, sequence (Q9NWZ3 whole entry): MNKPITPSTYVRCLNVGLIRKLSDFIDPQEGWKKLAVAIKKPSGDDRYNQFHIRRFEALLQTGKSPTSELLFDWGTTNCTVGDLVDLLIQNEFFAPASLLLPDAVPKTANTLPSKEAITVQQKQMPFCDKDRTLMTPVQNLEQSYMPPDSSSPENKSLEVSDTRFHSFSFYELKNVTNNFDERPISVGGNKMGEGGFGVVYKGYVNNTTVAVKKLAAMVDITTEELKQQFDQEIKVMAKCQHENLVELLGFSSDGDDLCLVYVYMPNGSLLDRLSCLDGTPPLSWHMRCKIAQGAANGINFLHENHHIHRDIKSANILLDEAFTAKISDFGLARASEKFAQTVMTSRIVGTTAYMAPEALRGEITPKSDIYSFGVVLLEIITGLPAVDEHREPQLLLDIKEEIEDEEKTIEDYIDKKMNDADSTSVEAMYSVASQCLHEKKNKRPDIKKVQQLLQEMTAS

O=C(Nc1nc2ccccc2n1CCN1CCOCC1)c1cccc([N+](=O)[O-])c1 [IRAK-1,-4 inhibitor]
decrease of percentage of cells in S phase ([1]; FIG. 14C): ~30% | percentage of cells in G0/G1 phase ([1]; after 96 hours): 50% | percentage of cells in G0/G1 phase ([1]; within 24 hours (from 25%)): 43% | number of viable cells ([2]; FIG. 14B): maintained a relatively constant number of viable cells | apoptosis (sub-G1 phase, Annexin V) ([2]; FIG. 14D): did not induce apoptosis | levels of cleaved PARP and caspase-3 ([3]; 2.5 μmol/L IRAK-1,-4 inhibitor combined with vinblastine): increased the levels | active caspase-3 ([3]; 10 μM, 48 h, FIG. 8C): detected | cleaved PARP ([3]; concentration-dependent, 48 h, FIG. 8C): Enhanced accumulation | levels of cleaved PARP and caspase-3 ([3]; single agent alone): little effect | inhibition of IRAK-4 [4]: selectively inhibits

tripalmitoyl-S-(bis(palmitoyloxy)propyl)-Cys-Ser-(Lys)3-Lys [Pam3Cysk4]
p-IRAK-1 or p-IRAK-4 expression levels [5]: neither TLR-1-TLR2 agonist (Pam3CysK4), nor TLR5 (Flagellin) stimulation increased or induced

Source: patent publication US9464326B2, “Total and phosphorylated IL-1 receptor-associated kinase-1 and IL-1 receptor-associated kinase-4 as a biomarker for cancer progression and chemotherapy resistance” (University of Maryland, Baltimore, priority 2012, dated 2016)
